From EPA's ToxValDB 9.5
Several values for one entry are separate records, joined by “and”; a condition that tells them apart may be missing. Identical values can stand only once. Counter-ions that a name gives are not always drawn.

Test system: Rattus norvegicus
Settings: for LD50: acute, mortality
[1] = subchronic, duration: 90 days, oral, diet, M/F, no effects
[2] = subchronic, duration: 90 days, oral, diet, M/F, Sprague-Dawley, no effects
[3] = subchronic, duration: 90 days, oral, gavage, M/F, hematological

Work on `Cc1ccc(C(C)C)cc1` [p-Cymene] yielded an NOAEL (chronic, duration: 6 months, oral, gavage, F, organ weight) of 154 mg/kg-day.

Work on `Cc1ncc(C[n+]2csc(CCO)c2C)c(N)n1.Cl.[Cl-]` [Thiamine hydrochloride] yielded an NOAEL (subchronic, duration: 90 days, oral, diet) of 36 mg/kg-day.

`CC(=O)c1ccc(C)[nH]1` [1-(5-Methyl-1H-pyrrol-2-yl)ethan-1-one] gave an NOAEL (subchronic, duration: 90 days, oral, gavage, M, hematological) of 48 mg/kg-day.

`COc1ccc(C=O)cc1OC` [Veratraldehyde] gave an NOAEL (subchronic, duration: 13 weeks, oral, gavage, no effects) of 400 mg/kg-day.

Work on `CC(C)(C)C1CCC(O)CC1` (centres undefined) [4-tert-Butylcyclohexanol] yielded an NOAEL (reproduction developmental, clinical signs) of 31.5 mg/kg-day and an NOAEL (short-term, duration: 28 days, clinical signs) of 30 mg/kg-day.

`O=c1[nH]sc2ccccc12` [1,2-Benzisothiazolin-3-one] was tested, and the NOAEL (subchronic, duration: 90 days, oral, gavage, M/F, Wistar, histopathology: nonneoplastic) was 10 mg/kg-day.

With `CNC(=O)C(C)(C(C)C)C(C)C` [Trimethyl isopropyl butanamide] the NOEL (chronic, duration: 14 weeks, oral, diet, M/F, histopathology: nonneoplastic) was 5 mg/kg-day.

Compound `CCOC(=O)CCCSC(C)=O` [Ethyl 4-(acetylthio)butyrate] has an NOEL (subchronic, duration: 13 weeks, oral, diet) of 6.5 mg/kg-day, an NOAEL (subchronic, duration: 90 days, oral) of 6.63 mg/kg-day and an NOAEL [1] of 6.63 mg/kg-day.

`CC=O` [Acetaldehyde] showed an NOAEL (subchronic, duration: 11 weeks, oral, drinking water, other) of 120 mg/kg-day.

For `CCCCOC(=O)CC(CC(=O)OCCCC)(OC(C)=O)C(=O)OCCCC` [Acetyl tributyl citrate], the NOAEL (subchronic, duration: 90 days, oral, body weight) was 100 mg/kg-day.

With `C#CCN1C(=O)COc2cc(F)c(N3C(=O)C4=C(CCCC4)C3=O)cc21` [Flumioxazin] the NOAEL (chronic, duration: 2 years, hematological) was 1.8 mg/kg-day, the NOAEL (developmental, development) was 3 mg/kg-day and the NOAEL (subchronic, duration: 90 days, oral, hematological) was 2.2 mg/kg-day.

Compound `CCCCCCCCCCCCCCCCCC(=O)OC(C)C(=O)OC(C)C(=O)[O-].[Na+]` (centres undefined) [Sodium stearoyl lactylate] has an NOAEL (chronic, duration: 1 years, M/F, Wistar, no effects) of 2200 mg/kg-day.

Work on `CCC1=C(O)C(=O)C(C)O1` (centres undefined) [3(2H)-Furanone, 5-ethyl-4-hydroxy-2-methyl-] yielded an NOAEL (chronic, duration: 2 years, M/F, body weight) of 200 mg/kg-day.

In the case of `CC1CCCCC1NC(=O)c1c(F)c(F)c(F)c(F)c1F` (centres undefined) [2,3,4,5,6-Pentafluoro-N-(2-methylcyclohexyl)benzamide], the NOAEL (subchronic, duration: 90 days, oral, diet, M/F, Wistar, clinical signs) is reported as 55 mg/kg-day.

`CCC(S)S` [1,?1-?Propanedithiol] was tested, and the NOAEL [2] was 0.705 mg/kg-day (2×) and 0.703 mg/kg-day (2×).

`Cl.N[C@@H](C=O)[C@@H](O)[C@H](O)[C@H](O)CO` [Glucosamine hydrochloride] gave an NOAEL (chronic, duration: 52 weeks) of 2130 mg/kg-day.

For `COc1ccc(CCC(=O)c2c(O)cc(O[C@@H]3O[C@H](CO)[C@@H](O)[C@H](O)[C@H]3O[C@@H]3O[C@@H](C)[C@H](O)[C@@H](O)[C@H]3O)cc2O)cc1O` [Neohesperidin dihydrochalcone], the NOAEL (repeat dose other, no effects) was 500 mg/kg-day.

Compound `O=Cc1ccco1` [Furfural] has an NOEL (subchronic, duration: 90 days, oral, diet, M/F, Fischer 344, hematological) of 54 mg/kg-day.

With `O=S([O-])S(=O)(=O)[O-].[Na+].[Na+]` [Sodium metabisulfite] the NOAEL (chronic, duration: 2 years, oral, diet, M/F, histopathology: nonneoplastic) was 72 mg/kg-day.

`O=C1O[C@H]([C@H](O)CO)C(O)=C1O` [Isoascorbic acid] was tested, and the NOAEL (chronic, duration: 2 years, oral, drinking water, M/F, Fischer 344, body weight) was 650 mg/kg-day.

Compound `CC(=O)N[C@@H]([C@@H](O)[C@H](O)[C@H](O)CO)[C@@H](O)CC(=O)C(=O)O` [Aceneuramic acid] has an NOAEL (subchronic, duration: 13 weeks, oral, diet, M/F, Crj:CD, food consumption) of 493 mg/kg-day.

Work on `CCCCCC/C=C/C(C)=O` [3-Decen-2-one] yielded an LD50 (oral) of over 5000 mg/kg-day and an NOAEL (developmental, development) of at least 1000 mg/kg-day.

Work on `Cc1ccc2oc(=O)ccc2c1` [6-Methyl coumarin] yielded an NOEL (subchronic, duration: 13 weeks) of 150 mg/kg-day.

For `Cn1cc(C(F)(F)F)cc(Cl)c1=O` [3-Chloro-1-methyl-5-(trifluoromethyl)pyridin-2-one], the LD50 (oral, F, Wistar) was 124 mg/kg.

Compound `C1CCNCC1` [Piperidine] has an NOAEL (subchronic, duration: 90 days, oral, M/F, Sprague-Dawley, clinical chemistry) of 5 mg/kg-day.

`C=CC(C)=CCC=C(C)C` [beta-Ocimene] was tested, and the NOAEL [2] was 44 mg/kg-day.

Compound `NS(=O)(=O)c1ccccc1C(F)(F)F` [2-(Trifluoromethyl)benzenesulfonamide] has an NOAEL (short-term, duration: 28 days, organ weight) of 15 mg/kg-day.

`CCCCCC(C)=O` [2-Heptanone] was tested, and the NOAEL (subchronic, duration: 13 weeks, oral, gavage, M/F, organ weight) was 20 mg/kg-day.

`CC(=O)Nc1ccc(S(=O)(=O)[O-])c2cc(S(=O)(=O)[O-])c(N=Nc3ccc(N=Nc4ccc(S(=O)(=O)[O-])cc4)c4ccc(S(=O)(=O)[O-])cc34)c(O)c12.[Na+].[Na+].[Na+].[Na+]` [Black PN] was tested, and the NOAEL (chronic, duration: 2 years, oral, diet, M/F, no effects) was 500 mg/kg-day.

In the case of `CCOC(=O)CNC(=O)[C@@H]1C[C@H](C)CC[C@H]1C(C)C`, the NOAEL [3] is reported as 75 mg/kg-day.

Work on `CC(C)=CCC/C(C)=C/CNC(=O)C1CC1` [N-3,7-Dimethyl-2,6-octadienyl cyclopropylcarboxamide, (2E)-] yielded an NOAEL [1] of 73.3 mg/kg-day.

`C=CCc1ccc(OC(C)=O)c(OC)c1` [(2-Methoxy-4-prop-2-enylphenyl) acetate] showed an NOAEL (subchronic, duration: 90 days, clinical chemistry) of 300 mg/kg-day.

For `CC(=O)c1ccccn1` [1-(2-Pyridyl)-1-ethanone], the NOAEL [3] was 37 mg/kg-day.
